Laboratory results from paper PMC11345830, “Exploration of Hydrazide-Based HDAC8 PROTACs for the Treatment of Hematological Malignancies and Solid Tumors” (Journal of Medicinal Chemistry, 2024).
Like-named read-outs stand apart in the source and are kept apart here.

Tests used:
HCT116 cells [1] = assay: Apoptosis assay (Annexin V-FITC/PI flow cytometry), HCT116; format: cell-based; set-up: Q1 (flow cytometry quadrant) / Q2 (flow cytometry quadrant) / Q3 (flow cytometry quadrant) / Q4 (flow cytometry quadrant): unit not given here; settings: 48 h
Method: (§1) The cell apoptosis assay was performed using eBioscience Annexin V-FITC/PI Apoptosis Detection Kit (Thermo Fisher Scientific, Carlsbad, CA, USA). Jurkat cells (5 × 10^5) and HCT116 cells (3 × 10^5) were treated with different concentrations of test compounds for 24 or 48 h. Cells were harvested after incubation, washed twice in cold PBS, centrifuged, and resuspended in 1X annexin-binding buffer. According to the manufacturer’s instructions, cells were incubated with Annexin V and Propidium iodide (PI) sequentially. All samples were analyzed by NovoCyte Quanteon Flow Cytometer (Agilent Technologies, CA, USA).

Jurkat cells [2] = assay: Cell cycle analysis, Jurkat; format: cell-based; settings: 48 h, control group 43.5%
Method: (§2) Jurkat cells (5 × 10^5) and HCT116 cells (3 × 10^5) were seeded on 6-well plates. The next day, cells were treated with indicated concentrations of compounds for 48 h. Cells were harvested after incubation, washed twice in cold PBS, centrifuged, and stained with a solution containing 20 μg/mL of Propidium iodide (PI) and 0.1% (v/v) Triton-X100 for 15 min at room temperature, followed by detection with NovoCyte Quanteon Flow Cytometer (Agilent Technologies, CA, USA).

STAT3 = settings: 24 h
Description: We also explored a potential by-stander effect of HDAC8 degradation. It has been reported that HDAC8 can form a corepressor complex with STAT3 and release of the HDAC8 corepressor complex can recruit p300, Sp3, and other factors that activate gene transcription in colon cancer HCT116 cells.[20]

acetyl-SMC3 (Ac-SMC3) [3] = assay: Ac-SMC3 level in Jurkat cells, Western blot; format: cell-based; settings: 6 h
acetyl-SMC3 (Ac-SMC3) [4] = assay: Ac-SMC3 level in HCT116 cells, Western blot; format: cell-based; settings: 6 h
[5] = test system: acetyl-histone H3 (Ac-HH3); assay: Ac-HH3 level in HCT116 cells, Western blot; format: cell-based; settings: 6 h
HCT116 cells [6] = assay: Cell cycle analysis, HCT116; format: cell-based; settings: 48 h, control group 23.0%
Method: as §2

Jurkat cells [7] = assay: Cell death determination by flow cytometry (Hoechst 33342/PI), Jurkat; format: cell-based; settings: 5 μM, 48 h
Method: Jurkat cells (5 × 10^5) were seeded on 6-well plates. The next day, cells were treated with indicated concentrations of compounds for 48 h. Cells were harvested after incubation, washed twice in cold PBS, centrifuged, and stained with 7 μM Hoechst 33342 and 2 μM of Propidium iodide (PI) sequentially, and then determined by NovoCyte Quanteon Flow Cytometer (Agilent Technologies, CA, USA). Cells stained only with Hoechst 33342 were counted as live cells, while cells stained with both Hoechst 33342 and PI were counted as dead cells.

HDAC6 = biological target: T1, HDAC6 (Homo sapiens, UniProt Q9UBN7); assay: HDAC6 level in HCT116 cells, Western blot; format: cell-based; set-up: endogenous in cells; host or cells: HCT116; settings: 6 h
T1 sequence (Q9UBN7 1-1215): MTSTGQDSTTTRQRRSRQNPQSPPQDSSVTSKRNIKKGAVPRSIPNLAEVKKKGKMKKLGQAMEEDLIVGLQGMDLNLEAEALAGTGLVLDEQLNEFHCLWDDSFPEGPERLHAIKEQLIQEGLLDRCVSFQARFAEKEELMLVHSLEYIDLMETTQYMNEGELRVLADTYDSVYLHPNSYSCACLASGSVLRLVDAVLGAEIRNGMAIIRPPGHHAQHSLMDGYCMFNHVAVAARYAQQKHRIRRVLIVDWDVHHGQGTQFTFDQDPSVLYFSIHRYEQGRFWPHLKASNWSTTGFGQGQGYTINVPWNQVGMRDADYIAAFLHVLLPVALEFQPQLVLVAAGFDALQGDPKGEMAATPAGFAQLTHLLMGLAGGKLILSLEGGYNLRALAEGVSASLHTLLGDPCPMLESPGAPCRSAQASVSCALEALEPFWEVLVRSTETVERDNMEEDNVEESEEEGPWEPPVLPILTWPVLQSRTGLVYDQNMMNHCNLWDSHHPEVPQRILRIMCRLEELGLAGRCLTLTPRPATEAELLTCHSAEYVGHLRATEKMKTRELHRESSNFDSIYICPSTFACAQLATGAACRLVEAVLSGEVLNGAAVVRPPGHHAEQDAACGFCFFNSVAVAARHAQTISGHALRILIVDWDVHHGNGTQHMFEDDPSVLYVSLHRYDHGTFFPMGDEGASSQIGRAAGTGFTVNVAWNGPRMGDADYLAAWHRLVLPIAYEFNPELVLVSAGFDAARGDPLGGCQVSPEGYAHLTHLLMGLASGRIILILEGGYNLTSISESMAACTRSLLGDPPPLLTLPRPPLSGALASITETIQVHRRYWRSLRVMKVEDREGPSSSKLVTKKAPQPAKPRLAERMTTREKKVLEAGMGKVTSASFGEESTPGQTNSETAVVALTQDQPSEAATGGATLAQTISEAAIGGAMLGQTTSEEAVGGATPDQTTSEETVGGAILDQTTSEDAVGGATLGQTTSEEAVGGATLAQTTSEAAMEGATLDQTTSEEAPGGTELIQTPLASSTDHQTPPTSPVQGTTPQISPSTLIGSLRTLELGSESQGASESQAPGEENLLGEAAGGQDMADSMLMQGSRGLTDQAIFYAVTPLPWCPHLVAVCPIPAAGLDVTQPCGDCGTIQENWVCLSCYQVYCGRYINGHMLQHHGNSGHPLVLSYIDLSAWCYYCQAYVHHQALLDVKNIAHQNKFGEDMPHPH

Jurkat cells [8] = assay: Apoptosis assay (Annexin V-FITC/PI flow cytometry), Jurkat; format: cell-based; settings: 24 and 48 h
Method: as §1

Question: How did the “Q1 (flow cytometry quadrant)” value (HCT116 cells [1]; 1.1 μM) turn out when `CCCCCCNNC(=O)c1ccc(CNC(=O)CN2CCC(c3ccc(NC4CCC(=O)NC4=O)cc3)CC2)cc1` (stereo not drawn) [Z16, 2-(4-(4-((2,6-Dioxopiperidin-3-yl)amino)phenyl)piperidin-1-yl)-N-(4-(2-hexylhydrazine-1-carbonyl)benzyl)acetamide] was run?
Answer: Its value is 4.38.

Question: What about the “Q2 (flow cytometry quadrant)” value (HCT116 cells [1]; 1.1 μM) of the same compound?
Answer: The value was 5.93.

Question: What about the “Q3 (flow cytometry quadrant)” value (HCT116 cells [1]; 1.1 μM) of the same compound?
Answer: Its value is 10.3.

Question: And the “Q4 (flow cytometry quadrant)” value (HCT116 cells [1]; 1.1 μM)?
Answer: Its value is 79.4.

Question: And the “Q1 (flow cytometry quadrant)” value (HCT116 cells [1]; 3.3 μM)?
Answer: Its value is 2.37.

Question: What about the “Q2 (flow cytometry quadrant)” value (HCT116 cells [1]; 3.3 μM) of the same compound?
Answer: Its value is 32.3.

Question: And the “Q3 (flow cytometry quadrant)” value (HCT116 cells [1]; 3.3 μM)?
Answer: The value was 44.6.

Question: And the “Q4 (flow cytometry quadrant)” value (HCT116 cells [1]; 3.3 μM)?
Answer: Its value is 20.7.

Question: And the apoptosis induced (HCT116 cells [1]; 3.3 μM)?
Answer: Its apoptosis induced is “over 70%”.

Question: And the “Q1 (flow cytometry quadrant)” value (HCT116 cells [1]; 10 μM)?
Answer: Its value is 2.80.

Question: And the “Q2 (flow cytometry quadrant)” value (HCT116 cells [1]; 10 μM)?
Answer: The value was 57.3.

Question: What about the “Q3 (flow cytometry quadrant)” value (HCT116 cells [1]; 10 μM) of the same compound?
Answer: Its value is 24.9.

Question: What about the “Q4 (flow cytometry quadrant)” value (HCT116 cells [1]; 10 μM) of the same compound?
Answer: The value was 15.1.

Question: What about the “proportion of cells at G0/G1 phase” value (Jurkat cells [2]; 0.13 μM) of the same compound?
Answer: The value was 48.4%.

Question: And the “proportion of cells at G0/G1 phase” value (Jurkat cells [2]; 0.37 μM)?
Answer: The value was 52.2%.

Question: What about the “proportion of cells at G0/G1 phase” value (Jurkat cells [2]; 1.1 μM) of the same compound?
Answer: Its value is 61%.

Question: And the “proportion of cells at G0/G1 phase” value (Jurkat cells [2]; 3.3 μM)?
Answer: The value was 68.2%.

Question: And the “STAT3 degradation (in words)” value (STAT3; HCT116 cells)?
Answer: The value was “did not induce STAT3 degradation”.

Question: And the “STAT3 degradation (in words)” value (STAT3; Jurkat cells)?
Answer: Its value is “did not induce STAT3 degradation”.

Question: And the “concentration at which increased acetylation of SMC3 started” value (acetyl-SMC3 (Ac-SMC3) [3])?
Answer: The value was “around 10 nM”.

Question: And the “concentration leading to obvious increased Ac-SMC3” value (acetyl-SMC3 (Ac-SMC3) [3])?
Answer: The value was 0.01 µM.

Question: And the “concentration at which increased acetylation of SMC3 started” value (acetyl-SMC3 (Ac-SMC3) [4])?
Answer: Its value is 40 nM.

Question: What about the “concentration at which increased acetylation of histone H3 started” value [5] of the same compound?
Answer: Its value is 40 nM.

Question: What about the “proportion of cells at G2/M phase” value (HCT116 cells [6]; 0.13 μM) of the same compound?
Answer: The value was 24.1%.

Question: What about the “proportion of cells at G2/M phase” value (HCT116 cells [6]; 0.37 μM) of the same compound?
Answer: Its value is 26.4%.

Question: And the “proportion of cells at G2/M phase” value (HCT116 cells [6]; 1.1 μM)?
Answer: Its value is 26.2%.

Question: What about the “proportion of cells at G2/M phase” value (HCT116 cells [6]; 3.3 μM) of the same compound?
Answer: Its value is 38.8%.

Question: And the cell death induced (Jurkat cells [7])?
Answer: Its cell death induced is 10%.

Question: What about the “impact on HDAC6 (in words)” value (HDAC6) of the same compound?
Answer: Its value is “without significant impact”.

Question: And the “induction of apoptosis (in words)” value (Jurkat cells [8])?
Answer: The value was “neither Z16 nor SAHA could effectively induce apoptosis”.
